These are literature values, as cited in PubChem BioAssay AID1259409 (Chemical Carcinogenesis Research Information System (CCRIS), 2018).

The series has as its system rodent chemically induced tumor inhibition, incidence and multiplicity. Put plainly: CCRIS tumor inhibitor studies. Conditions: Route [Inhibitor]: ORAL, Promoter: NONE USED.

On to `CCNC(=O)/C=C(C)/C=C/C=C(C)/C=C/C1=C(C)CCCC1(C)C`, for which the “tumour outcome (control, treated, inhibition, significance)” value by setting is: (Carcinogen: 1,2-DIMETHYLHYDRAZINE, 540-73-8, Dose [Inhibitor]: 2 MMOL/KG DIET DAILY STARTING 12 D AFTER CARCINOGEN TREATMENT THROUGH ABOUT 8 MO AFTER CARCINOGEN DOSE (STUDY DURATION:, Species: RAT, Strain/Sex: F344/MALE, Target Tissue: Type of Lesion: COLON: ADENOCARCINOMA, Dose [Carcinogen]: 150 MG/KG BW ONCE) 10/39 (26%), 6/30 (20%), 23%, not significant; (Carcinogen: 1,2-DIMETHYLHYDRAZINE, 540-73-8, Dose [Inhibitor]: 2 MMOL/KG DIET DAILY STARTING 12 D AFTER CARCINOGEN TREATMENT THROUGH ABOUT 8 MO AFTER CARCINOGEN DOSE (STUDY DURATION:, Species: RAT, Strain/Sex: F344/MALE, Target Tissue: Type of Lesion: COLON: ADENOMA, Dose [Carcinogen]: 150 MG/KG BW ONCE) 23/39 (59%), 15/30 (50%), 15%, not significant; (Carcinogen: N-(4-(5-NITRO-2-FURYL)-2-THIAZOLYL)FORMAMIDE, 24554-26-5, Dose [Inhibitor]: 327 MG/KG DIET DAILY FOR 39 WK STARTING ONE WK FOLLOWING THE TERMINATION OF CARCINOGEN ADMINISTRATION (STUDY DURATION: 5, Species: RAT, Strain/Sex: F344/FEMALE, Target Tissue: Type of Lesion: URINARY BLADDER: CARCINOMA, Dose [Carcinogen]: 2 G/KG IN DIET DAILY FOR 10 WK) 105/200 (53%), 63/100 (63%), -19%, p 0.0843; (Carcinogen: N-(4-(5-NITRO-2-FURYL)-2-THIAZOLYL)FORMAMIDE, 24554-26-5, Dose [Inhibitor]: 327 MG/KG DIET DAILY FOR 39 WK STARTING ONE WK FOLLOWING THE TERMINATION OF CARCINOGEN ADMINISTRATION (STUDY DURATION: 5, Species: RAT, Strain/Sex: F344/FEMALE, Target Tissue: Type of Lesion: URINARY BLADDER: PAPILLOMA, Dose [Carcinogen]: 2 G/KG IN DIET DAILY FOR 10 WK) 15/200 (8%), 1/100 (1%), 88%, p 0.0182; (Carcinogen: N-(4-(5-NITRO-2-FURYL)-2-THIAZOLYL)FORMAMIDE, 24554-26-5, Dose [Inhibitor]: 327 MG/KG/D IN DIET FOR 39 WK STARTING 1 WK POST CARCINOGEN DOSE TREATMENT (STUDY DURATION: 50 WK), Species: RAT, Strain/Sex: F344/FEMALE, Target Tissue: Type of Lesion: URINARY BLADDER: PAPILLOMA, Dose [Carcinogen]: 2 G/KG/D IN DIET FOR 10 WK) 15/200 (8%), 1/100 (1%), 87%, p=0.0182; (Carcinogen: N-(4-(5-NITRO-2-FURYL)-2-THIAZOLYL)FORMAMIDE, 24554-26-5, Dose [Inhibitor]: 327 MG/KG/D IN DIET FOR 39 WK STARTING 1 WK POST CARCINOGEN TREATMENT (STUDY DURATION: 50 WK), Species: RAT, Strain/Sex: F344/FEMALE, Target Tissue: Type of Lesion: URINARY BLADDER: CARCINOMA, Dose [Carcinogen]: 2 G/KG/D IN DIET FOR 10 WK) 105/200 (53%), 63/100 (63%), -19%, p=0.0843. The “tumour outcome (control, treated, inhibition, significance)” value by setting is: (Carcinogen: N-(4-(5-NITRO-2-FURYL)-2-THIAZOLYL)FORMAMIDE, 24554-26-5, Dose [Inhibitor]: 654 MG/KG DIET DAILY FOR 39 WK STARTING ONE WK FOLLOWING THE TERMINATION OF CARCINOGEN ADMINISTRATION (STUDY DURATION: 5, Species: RAT, Strain/Sex: F344/FEMALE, Target Tissue: Type of Lesion: URINARY BLADDER: CARCINOMA, Dose [Carcinogen]: 2 G/KG IN DIET DAILY FOR 10 WK) 105/200 (53%), 78/100 (78%), -47%, p 0.00002; (Carcinogen: N-(4-(5-NITRO-2-FURYL)-2-THIAZOLYL)FORMAMIDE, 24554-26-5, Dose [Inhibitor]: 654 MG/KG DIET DAILY FOR 39 WK STARTING ONE WK FOLLOWING THE TERMINATION OF CARCINOGEN ADMINISTRATION (STUDY DURATION: 5, Species: RAT, Strain/Sex: F344/FEMALE, Target Tissue: Type of Lesion: URINARY BLADDER: PAPILLOMA, Dose [Carcinogen]: 2 G/KG IN DIET DAILY FOR 10 WK) 15/200 (8%), 12/100 (12%), -50%, p 0.1989; (Carcinogen: N-(4-(5-NITRO-2-FURYL)-2-THIAZOLYL)FORMAMIDE, 24554-26-5, Dose [Inhibitor]: 654 MG/KG IN DIET FOR 39 WK STARTING 1 WK POST CARCINOGEN TREATMENT (STUDY DURATION: 50 WK), Species: RAT, Strain/Sex: F344/FEMALE, Target Tissue: Type of Lesion: URINARY BLADDER: PAPILLOMA, Dose [Carcinogen]: 2 G/KG/D IN DIET FOR 10 WK) 15/200 (7.5%), 12/100 (12%), -60%, p=0.1989; (Carcinogen: N-(4-(5-NITRO-2-FURYL)-2-THIAZOLYL)FORMAMIDE, 24554-26-5, Dose [Inhibitor]: 654 MG/KG/D IN DIET FOR 39 WK STARTING 1 WK POST CARCINOGEN TREATMENT (STUDY DURATION: 50 WK), Species: RAT, Strain/Sex: F344/FEMALE, Target Tissue: Type of Lesion: URINARY BLADDER: CARCINOMA, Dose [Carcinogen]: 2 G/KG/D IN DIET FOR 10 WK) 105/200 (53%), 78/100 (78%), -47%, p=0.00002; (Carcinogen: N-BUTYL-N-(4-HYDROXYBUTYL)NITROSAMINE, 3817-11-6, Dose [Inhibitor]: 0.5 MMOL/KG DIET DAILY FOR 16 WK STARTING 7 D AFTER FINAL CARCINOGEN DOSE (STUDY DURATION: 6 MO), Species: MOUSE, Strain/Sex: B6D2F1/MALE, Target Tissue: Type of Lesion: URINARY BLADDER: CARCINOMA, Dose [Carcinogen]: 5 OR 10 MG 2/WK FOR 9 WK) 36/97 (37%), 25/76 (33%), 11%, not significant; (Carcinogen: N-BUTYL-N-(4-HYDROXYBUTYL)NITROSAMINE, 3817-11-6, Dose [Inhibitor]: 1 MMOL/KG DIET DAILY FOR 16 WK STARTING 7 D AFTER FINAL CARCINOGEN DOSE (STUDY DURATION: 6 MO), Species: MOUSE, Strain/Sex: B6D2F1/MALE, Target Tissue: Type of Lesion: URINARY BLADDER: CARCINOMA, Dose [Carcinogen]: 5 OR 10 MG 2/WK FOR 9 WK) 36/97 (37%), 16/75 (21%), 43%, p<0.025. Besides, the “tumour outcome (control, treated, inhibition, significance)” value runs as follows: (Carcinogen: N-BUTYL-N-(4-HYDROXYBUTYL)NITROSAMINE, 3817-11-6, Dose [Inhibitor]: 1.5 MMOL/KG DIET DAILY FOR 153 D STARTING ONE WK AFTER THE FINAL CARCINOGEN DOSE (STUDY DURATION: 210 D), Species: MOUSE, Strain/Sex: BDF1/MALE, Target Tissue: Type of Lesion: URINARY BLADDER: TRANSITIONAL CELL CARCINOMA, Dose [Carcinogen]: 7.5 MG 1/WK FOR 8 WK) 35/99 (35%), 21/99 (21%), 40%, p<0.05; (Carcinogen: N-BUTYL-N-(4-HYDROXYBUTYL)NITROSAMINE, 3817-11-6, Dose [Inhibitor]: 1.5 MMOL/KG IN DIET FOR 153 D STARTING 1 WK AFTER LAST CARCINOGEN DOSE (STUDY DURATION: 210 D), Species: MOUSE, Strain/Sex: DBF1/MALE, Target Tissue: Type of Lesion: URINARY BLADDER: TRANSITIONAL CELL CARCINOMA, Dose [Carcinogen]: 7.5 MG 1/WK FOR 8 WK) 35/99 (35%), 21/99 (21%), 40%, p<0.05; (Carcinogen: N-BUTYL-N-(4-HYDROXYBUTYL)NITROSAMINE, 3817-11-6, Dose [Inhibitor]: 2 MMOL/KG DIET DAILY FOR 17 WK STARTING 7 D AFTER FINAL CARCINOGEN DOSE (STUDY DURATION: 6 MO), Species: RAT, Strain/Sex: F344/MALE, Target Tissue: Type of Lesion: URINARY BLADDER: TRANSITIONAL CELL CARCINOMA, Dose [Carcinogen]: 200 MG 2/WK FOR 8 WK) 55/60 (92%), 25/30 (83%), 10%, not significant; (Carcinogen: N-BUTYL-N-(4-HYDROXYBUTYL)NITROSAMINE, 3817-11-6, Dose [Inhibitor]: 2 MMOL/KG DIET DAILY FOR 19 WK STARTING 7 D AFTER FINAL CARCINOGEN DOSE (STUDY DURATION: 6 MO), Species: RAT, Strain/Sex: F344/FEMALE, Target Tissue: Type of Lesion: URINARY BLADDER: TRANSITIONAL CELL CARCINOMA, Dose [Carcinogen]: 150 MG 2/WK FOR 6 WK) 28/80 (35%), 5/40 (12%), 66%, p<0.01; (Carcinogen: N-METHYL-N-NITROSOUREA, 684-93-5, Dose [Inhibitor]: 2 MMOL/KG DIET DAILY STARTING 12 D AFTER CARCINOGEN TREATMENT THROUGH ABOUT 8 MO AFTER CARCINOGEN DOSE (STUDY DURATION:, Species: RAT, Strain/Sex: F344/MALE, Target Tissue: Type of Lesion: COLON: ADENOCARCINOMA, Dose [Carcinogen]: 2.5 MG 1/WK FOR 2 WK) 5/39 (13%), 9/30 (30%), -131%, not significant.
